Results as given in the supplement of paper PMC11208160.

Assay: recombinant UMI read abundance after kanamycin selection (control-corrected) (log10(CPM+1)); higher = more efficient recombination; extreme values may be limits of the assay; sequences stand for … in AGTGCAGAGAAAATCGGCCAGTTTTCTCTGCCTGCAGTCCGCATGCCGTGGGACCCCTTGGGTTCTAACCTGTTGCCTAGATTTATGCAGCGGACTGCCTTTCTCCCAAAGTGATAAACCGG…AGGTTGGTTTCACT; site = the 11-nt donor
Outline: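 Pooled Escherichia coli screen of donor and donor-binding-loop pairs for the IS621 bridge recombinase. Each pair sits with a 12-nt UMI on a plasmid carrying a promoterless kanamycin gene. The library was co-electroporated with a target plasmid encoding a fixed target and T7-inducible recombinase, then plated with IPTG (0.07 mM) plus kanamycin, or unselected, each in two replicates. Recombinant UMIs were PCR-amplified across the donor–target junction and sequenced. Counts became CPM, averaged over replicates, scaled by control-derived factors and reported as log10(CPM+1).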

Row | Sequence | recombinant UMI read abundance (log10)
1 | TGGTTTCCATGGACCGGTTTTCCCGGTAATCCGTATTTGGG (site TGGTTTCCTCC) | 0.327
2 | TGTACACCATGGACCGGTTTTCCCGGTAATCCGTATTTGAC (site AGTACACCTGT) | 0
3 | TGTACACCATGGACCGGTTTTCCCGGTAATCCGTATTTGAC (site CGTACACCTGT) | 0
4 | TGTACACCATGGACCGGTTTTCCCGGTAATCCGTATTTGAC (site GGTACACCTGT) | 0
5 | TGTACACCATGGACCGGTTTTCCCGGTAATCCGTATTTGAC (site TATACACCTGT) | 0
6 | TGTACACCATGGACCGGTTTTCCCGGTAATCCGTATTTGAC (site TCTACACCTGT) | 0
7 | TGTACACCATGGACCGGTTTTCCCGGTAATCCGTATTTGAC (site TGAACACCTGT) | 0
8 | TGTACACCATGGACCGGTTTTCCCGGTAATCCGTATTTGAC (site TGCACACCTGT) | 0
9 | TGTACACCATGGACCGGTTTTCCCGGTAATCCGTATTTGAC (site TGGACACCTGT) | 0.00576
10 | TGTACACCATGGACCGGTTTTCCCGGTAATCCGTATTTGAC (site TGTAAACCTGT) | 0
11 | TGTACACCATGGACCGGTTTTCCCGGTAATCCGTATTTGAC (site TGTACAACTGT) | 0
12 | TGTACACCATGGACCGGTTTTCCCGGTAATCCGTATTTGAC (site TGTACACCTAT) | 0.0116
13 | TGTACACCATGGACCGGTTTTCCCGGTAATCCGTATTTGAC (site TGTACACCTCT) | 0.0222
14 | TGTACACCATGGACCGGTTTTCCCGGTAATCCGTATTTGAC (site TGTACACCTGA) | 0
15 | TGTACACCATGGACCGGTTTTCCCGGTAATCCGTATTTGAC (site TGTACACCTGC) | 0
16 | TGTACACCATGGACCGGTTTTCCCGGTAATCCGTATTTGAC (site TGTACACCTGG) | 0
17 | TGTACACCATGGACCGGTTTTCCCGGTAATCCGTATTTGAC (site TGTACACCTGT) | 0
18 | TGTACACCATGGACCGGTTTTCCCGGTAATCCGTATTTGAC (site TGTACACCTTT) | 0.0141
19 | TGTACACCATGGACCGGTTTTCCCGGTAATCCGTATTTGAC (site TGTACAGCTGT) | 0
20 | TGTACACCATGGACCGGTTTTCCCGGTAATCCGTATTTGAC (site TGTACATCTGT) | 0
21 | TGTACACCATGGACCGGTTTTCCCGGTAATCCGTATTTGAC (site TGTACCCCTGT) | 0
22 | TGTACACCATGGACCGGTTTTCCCGGTAATCCGTATTTGAC (site TGTACGCCTGT) | 0
23 | TGTACACCATGGACCGGTTTTCCCGGTAATCCGTATTTGAC (site TGTACTCCTGT) | 0
24 | TGTACACCATGGACCGGTTTTCCCGGTAATCCGTATTTGAC (site TGTAGACCTGT) | 0
25 | TGTACACCATGGACCGGTTTTCCCGGTAATCCGTATTTGAC (site TGTATACCTGT) | 0

Row | Sequence | recombinant UMI read abundance (log10)
26 | TGTACACCATGGACCGGTTTTCCCGGTAATCCGTATTTGAC (site TGTCCACCTGT) | 0
27 | TGTACACCATGGACCGGTTTTCCCGGTAATCCGTATTTGAC (site TGTGCACCTGT) | 0
28 | TGTACACCATGGACCGGTTTTCCCGGTAATCCGTATTTGAC (site TGTTCACCTGT) | 0
29 | TGTACACCATGGACCGGTTTTCCCGGTAATCCGTATTTGAC (site TTTACACCTGT) | 0
30 | TGTACACCATGGACCGGTTTTCCCGGTAATCCGTATTTGAG (site TGTACACCTAT) | 0.0116
31 | TGTACACCATGGACCGGTTTTCCCGGTAATCCGTATTTGAG (site TGTACACCTCT) | 0.00855
32 | TGTACACCATGGACCGGTTTTCCCGGTAATCCGTATTTGAG (site TGTACACCTGT) | 0
33 | TGTACACCATGGACCGGTTTTCCCGGTAATCCGTATTTGAG (site TGTACACCTTT) | 0.0116
34 | TGTACACCATGGACCGGTTTTCCCGGTAATCCGTATTTGGC (site TGTACACCTGA) | 0
35 | TGTACACCATGGACCGGTTTTCCCGGTAATCCGTATTTGGC (site TGTACACCTGC) | 0.00484
36 | TGTACACCATGGACCGGTTTTCCCGGTAATCCGTATTTGGC (site TGTACACCTGG) | 0
37 | TGTACACCATGGACCGGTTTTCCCGGTAATCCGTATTTGGC (site TGTACACCTGT) | 0
38 | TGTACGCCATGGACCGGTTTTCCCGGTAATCCGTATTTGAC (site TGTACACCTGT) | 0
39 | TGTACGCCATGGACCGGTTTTCCCGGTAATCCGTATTTGAC (site TGTACCCCTGT) | 0
40 | TGTACGCCATGGACCGGTTTTCCCGGTAATCCGTATTTGAC (site TGTACGCCTGT) | 0
41 | TGTACGCCATGGACCGGTTTTCCCGGTAATCCGTATTTGAC (site TGTACTCCTGT) | 0
42 | TGTACGCCATGGACCGGTTTTCCCGGTAATCCGTATTTGTA (site TGTACGCCTTA) | 0.00598
43 | TGTACTGCATGGACCGGTTTTCCCGGTAATCCGTATTTGCC (site TGTACTGCTGG) | 0.865
44 | TGTACTTCATGGACCGGTTTTCCCGGTAATCCGTATTTGGT (site TGTACTTCTAC) | 1.38
45 | TGTAGTGCATGGACCGGTTTTCCCGGTAATCCGTATTTGCC (site TGTAGTGCTGG) | 1.56
46 | TGTAGTGCATGGACCGGTTTTCCCGGTAATCCGTATTTGCT (site TGTAGTGCTAG) | 1.16
47 | TGTATCACATGGACCGGTTTTCCCGGTAATCCGTATTTGAA (site TGTATCACTTT) | 0.00408
48 | TGTATCTCATGGACCGGTTTTCCCGGTAATCCGTATTTGGG (site TGTATCTCTCC) | 0.0516
49 | TGTATGGCATGGACCGGTTTTCCCGGTAATCCGTATTTGAC (site TGTATGGCTGT) | 1.25
50 | TGTCACCCATGGACCGGTTTTCCCGGTAATCCGTATTTGGC (site TGTCACCCTGC) | 0

Row | Sequence | recombinant UMI read abundance (log10)
51 | TGTCCAACATGGACCGGTTTTCCCGGTAATCCGTATTTGTA (site AGTCCAACTTA) | 0.0568
52 | TGTCCAACATGGACCGGTTTTCCCGGTAATCCGTATTTGTA (site CGTCCAACTTA) | 0.338
53 | TGTCCAACATGGACCGGTTTTCCCGGTAATCCGTATTTGTA (site GGTCCAACTTA) | 0.0289
54 | TGTCCAACATGGACCGGTTTTCCCGGTAATCCGTATTTGTA (site TGTCCAACTTA) | 0.208
55 | TGTCCGGCATGGACCGGTTTTCCCGGTAATCCGTATTTGGC (site TGACCGGCTGC) | 0
56 | TGTCCGGCATGGACCGGTTTTCCCGGTAATCCGTATTTGGC (site TGCCCGGCTGC) | 0
57 | TGTCCGGCATGGACCGGTTTTCCCGGTAATCCGTATTTGGC (site TGGCCGGCTGC) | 0
58 | TGTCCGGCATGGACCGGTTTTCCCGGTAATCCGTATTTGGC (site TGTCCGGCTGC) | 0.541
59 | TGTCGAGCATGGACCGGTTTTCCCGGTAATCCGTATTTGTA (site TGTCGAGCTTA) | 0.92
60 | TGTCTACCATGGACCGGTTTTCCCGGTAATCCGTATTTGCG (site TGTCTACCTCG) | 0.0129
61 | TGTCTTGCATGGACCGGTTTTCCCGGTAATCCGTATTTGGG (site TGTCTTGCTCC) | 0.016
62 | TGTGAATCATGGACCGGTTTTCCCGGTAATCCGTATTTGTC (site TGTGAATCTGA) | 0.782
63 | TGTGCCACATGGACCGGTTTTCCCGGTAATCCGTATTTGTT (site TGTGCCACTAA) | 0.0457
64 | TGTGCGGCATGGACCGGTTTTCCCGGTAATCCGTATTTGCT (site TATGCGGCTAG) | 0.00771
65 | TGTGCGGCATGGACCGGTTTTCCCGGTAATCCGTATTTGCT (site TCTGCGGCTAG) | 0.00448
66 | TGTGCGGCATGGACCGGTTTTCCCGGTAATCCGTATTTGCT (site TGTGCGGCTAG) | 0.57
67 | TGTGCGGCATGGACCGGTTTTCCCGGTAATCCGTATTTGCT (site TTTGCGGCTAG) | 0.00385
68 | TGTGGTCCATGGACCGGTTTTCCCGGTAATCCGTATTTGTC (site TGTGGTCCTGA) | 0
69 | TGTTACCCATGGACCGGTTTTCCCGGTAATCCGTATTTGTA (site TGTTACCCTTA) | 0.0142
70 | TGTTACCCATGGACCGGTTTTCCCGGTAATCCGTATTTGTA (site TGTTCCCCTTA) | 0.0074
71 | TGTTACCCATGGACCGGTTTTCCCGGTAATCCGTATTTGTA (site TGTTGCCCTTA) | 0.0124
72 | TGTTACCCATGGACCGGTTTTCCCGGTAATCCGTATTTGTA (site TGTTTCCCTTA) | 0
73 | TGTTAGCCATGGACCGGTTTTCCCGGTAATCCGTATTTGAC (site TGTTAGCCTGT) | 0
74 | TGTTCCCCATGGACCGGTTTTCCCGGTAATCCGTATTTGCA (site TGTTCCCCTTA) | 0.0177
75 | TGTTCCCCATGGACCGGTTTTCCCGGTAATCCGTATTTGCA (site TGTTCCCCTTC) | 0.0115
